TGI and GI50 data for 15 compounds are collected here from PubChem BioAssay (NCI).

Test systems include HCT-15 colon; HOP-62 NSCLC; K-562 leukemia; NCI-H460 lung; UACC-257 melanoma; SK-OV-3 ovarian; SNB-19 CNS; HOP-92 NSCLC; PC-3 prostate; NCI/ADR-RES ovarian.
What all share (assay): growth of human tumour cells (NCI), 48 h

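Five compound concentrations were applied to cells in 96-well plates for 48 hours; endpoints were derived by simple linear interpolation of the resulting dose-response curve. GI50 marks 50% less growth. TGI is the concentration that stops growth completely.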

Take `COC1OC(COCc2ccc(Cl)cc2)C(OCc2ccc(Cl)cc2)C1O` (centres undefined): the TGI with HCT-15 colon was 32.3 µM; in the assay with HOP-62 NSCLC, 32.1 µM; in the assay with K-562 leukemia, 38.5 µM; in the assay on NCI-H460 lung, 32 µM; in the assay with UACC-257 melanoma, 30.7 µM; in the assay with SK-OV-3 ovarian, 65.9 µM. Besides, the TGI came to 32.4 µM with SNB-19 CNS and 25.1 µM with HOP-92 NSCLC.

As for `COC(=O)C1C(=O)O[C@@H](c2ccc(OC)cc2)C1C(=O)OC` (some centres undefined), the TGI in the assay on HOP-62 NSCLC, with K-562 leukemia, in the assay with UACC-257 melanoma, with SK-OV-3 ovarian, in the assay with SNB-19 CNS and with HOP-92 NSCLC was over 100 µM each time.

For `c1ccc2c(c1)nnn1c3cnccc3nc21`, the TGI was 80 µM in the assay with HCT-15 colon; over 100 µM in the assay on HOP-62 NSCLC; 69.6 µM with K-562 leukemia; 37.4 µM in the assay with NCI-H460 lung; over 100 µM in the assay on UACC-257 melanoma; over 100 µM in the assay on SK-OV-3 ovarian. Further, the values for the TGI in the assay with SNB-19 CNS and in the assay with HOP-92 NSCLC were over 100 µM and 67 µM, respectively.

Turning to `CCCCCCCCC(=O)CCCCCCCCC(=O)O`, the TGI with HOP-62 NSCLC was 66.6 µM; in the assay with K-562 leukemia, 46.6 µM; in the assay on NCI-H460 lung, 44.6 µM; in the assay with UACC-257 melanoma it was over 100 µM; in the assay with SK-OV-3 ovarian it was over 100 µM; in the assay with SNB-19 CNS, over 100 µM. Also, the TGI in the assay on HOP-92 NSCLC turned out to be 35.2 µM.

Turning to `CCOC(=O)CC(=O)N(c1ccc(OC)cc1)C(C(=O)OC)c1ccccc1` (centres undefined), the TGI with HCT-15 colon, in the assay with HOP-62 NSCLC, with K-562 leukemia, in the assay on NCI-H460 lung, with UACC-257 melanoma and with PC-3 prostate was over 100 µM in each case. The TGI in the assay on NCI/ADR-RES ovarian and with SNB-19 CNS was over 100 µM throughout.

For the compound `S=C1CNC(=S)CN1`, the TGI in the assay on HCT-15 colon, in the assay on HOP-62 NSCLC, in the assay with K-562 leukemia, in the assay on NCI-H460 lung, with UACC-257 melanoma and with SK-OV-3 ovarian was over 100 µM each time. Moreover, the TGI in the assay with SNB-19 CNS and with HOP-92 NSCLC was over 100 µM each time.

On to `Cc1ccc(NC(=O)C2C(=O)C(=O)N(c3ccc(C)cc3)C2=O)cc1` (centres undefined), for which the TGI in the assay with HCT-15 colon, in the assay on HOP-62 NSCLC, with K-562 leukemia, in the assay on NCI-H460 lung, in the assay on UACC-257 melanoma and with SNB-19 CNS was over 100 µM throughout. In addition, the TGI in the assay with HOP-92 NSCLC was over 100 µM.

As to `CCC[CH2][Sn]([CH2]CCC)([O]C(=O)c1cc(OC)c(OC)c(OC)c1)[O]C(=O)c1cc(OC)c(OC)c(OC)c1`, the GI50 was 2.01 µM with HOP-62 NSCLC; 0.29 µM in the assay on K-562 leukemia; 2.96 µM in the assay with NCI-H460 lung; 1.09 µM with UACC-257 melanoma; 1.69 µM in the assay with SK-OV-3 ovarian; 0.464 µM in the assay on SNB-19 CNS. Besides, the TGI was found to be 3.45 µM in the assay with HOP-62 NSCLC; 1.99 µM in the assay on K-562 leukemia; 9.21 µM with NCI-H460 lung; 2.47 µM in the assay with UACC-257 melanoma; 3.25 µM in the assay on SK-OV-3 ovarian; 1.54 µM in the assay with SNB-19 CNS.

Consider `Cc1cc(=O)[nH]c(CNC(=O)c2cccc3ccccc23)n1`, for which the TGI in the assay on HCT-15 colon, with HOP-62 NSCLC, in the assay with K-562 leukemia, in the assay on NCI-H460 lung, with UACC-257 melanoma and with SK-OV-3 ovarian was over 100 µM in each case. Besides, the TGI with SNB-19 CNS and with HOP-92 NSCLC was over 100 µM throughout.

Turning to `Clc1cccc(Cn2cc(Cc3cn(Cc4cccc(Cl)c4)c4ccccc34)c3ccccc32)c1`, the GI50 was over 100 µM in the assay with HCT-15 colon; over 100 µM in the assay with HOP-62 NSCLC; over 100 µM in the assay on K-562 leukemia; 46.5 µM in the assay with NCI-H460 lung; over 100 µM in the assay with UACC-257 melanoma; over 100 µM in the assay on SK-OV-3 ovarian. Also, the GI50 in the assay with PC-3 prostate is over 100 µM; with SNB-19 CNS, over 100 µM; with HOP-92 NSCLC, 22.5 µM. For the same compound, the TGI with HCT-15 colon, with HOP-62 NSCLC, in the assay on K-562 leukemia, in the assay on NCI-H460 lung, in the assay with UACC-257 melanoma and in the assay on SK-OV-3 ovarian was over 100 µM throughout. Also, the TGI with PC-3 prostate, in the assay with SNB-19 CNS and in the assay with HOP-92 NSCLC was over 100 µM throughout.

For the compound `COC(=O)C(=C\Sc1ccccc1)/C=C/C(=O)OC(C)(C)C`, the TGI came to 17.7 µM in the assay on HCT-15 colon; 34.8 µM in the assay with HOP-62 NSCLC; 15.8 µM in the assay on K-562 leukemia; 33.2 µM with NCI-H460 lung; 26.5 µM in the assay with UACC-257 melanoma; 43.9 µM in the assay with SK-OV-3 ovarian. Besides, the TGI came to 15.3 µM with SNB-19 CNS and 13.3 µM in the assay with HOP-92 NSCLC.

`Cc1cc(NC(=O)NC(=O)c2ccccc2[N+](=O)[O-])ccc1Oc1ncc(Cl)cn1`: the TGI was over 100 µM with HCT-15 colon; 19.4 µM with HOP-62 NSCLC; over 100 µM with K-562 leukemia; 18.8 µM in the assay with NCI-H460 lung; over 100 µM in the assay with UACC-257 melanoma; 24.1 µM in the assay with SK-OV-3 ovarian. In addition, the TGI was 94.5 µM in the assay on PC-3 prostate and over 66.2 µM in the assay with SNB-19 CNS.

Regarding `NC1=NN(c2ccccc2)C(=O)C1C(=O)C(=O)NC1C2CC3CC(C2)CC1C3` (centres undefined), the TGI with HCT-15 colon, in the assay on HOP-62 NSCLC, in the assay with K-562 leukemia, in the assay on NCI-H460 lung, with UACC-257 melanoma and in the assay on SK-OV-3 ovarian was over 100 µM throughout. For the same compound, the TGI in the assay on SNB-19 CNS and in the assay on HOP-92 NSCLC was over 100 µM each time.

`COC(=O)C1C2CC3C(OC(=O)C31)C2I` (centres undefined): the TGI in the assay with HCT-15 colon, with HOP-62 NSCLC, with K-562 leukemia, in the assay on NCI-H460 lung, in the assay on UACC-257 melanoma and with SK-OV-3 ovarian was over 100 µM each time. In addition, the TGI with SNB-19 CNS and in the assay with HOP-92 NSCLC was over 100 µM throughout.

Consider `C=CCOC1=C2CC[C@H](O)[C@@]2(C)CCC1=O`, for which the TGI with HCT-15 colon, in the assay on HOP-62 NSCLC, in the assay with NCI-H460 lung, in the assay with UACC-257 melanoma, in the assay on SK-OV-3 ovarian and in the assay on SNB-19 CNS was over 100 µM each time. The TGI in the assay on HOP-92 NSCLC was over 100 µM.
